The results in this text go back to patent US9266820B2, “Nitric oxide donor compounds” (NICOX S.A., priority 2007, dated 2016).

Counter-ions that a name gives are not always drawn.

One assay deals with isolated rabbit thoracic aorta preparations. Nature of the assay: vasorelaxant activity in isolated rabbit thoracic aorta preparations precontracted with noradrenaline. Type of assay: cell-based. Conditions: Oryctolagus cuniculus, read-out: IC50 (μM) ± sem. The method, then:
The ability of the compounds of the present invention to release nitric oxide was assessed testing their vasorelaxant activity in isolated rabbit thoracic aorta preparations (Wanstall J. C. et al., Br. J. Pharmacol., 134:463-472, 2001).
Male New Zealand rabbits were anaesthetized with thiopental-Na (50 mg/kg, iv), sacrificed by exsanguinations and then the thorax was opened and the aorta dissected. Single ring preparations (4 mm in length) of thoracic aorta were set up in physiological salt solution (PSS) at 37° C. in small organ chambers (5 ml). The composition of PSS was (mM): NaCl 130, NaHCO3 14.9, KH2PO4 1.2, MgSO4 1.2, HEPES 10, CaCl2, ascorbic acid […] and glucose 1.1 (95%)2/5% CO2; pH 7.4). Each ring was mounted under 2 g passive tension in 5 ml organ bath. Isometric tension was recorded with a Grass transducer (Grass FT03) attached to a BIOPAC MP150 System. Preparations were allowed to equilibrate for 1 h, then contracted submaximally with noradrenaline (NA, 1 μM) and, when the contraction was stable, acetylcholine (ACh, 10 μM) was added. A relaxant response to ACh indicated the presence of a functional endothelium. When a stable precontraction was reached, a cumulative concentration-response curve to either of the vasorelaxant agents was obtained in the presence of a functional endothelium. Time intervals between different concentrations were based on the time needed to reach a full response.
Moreover, the nitric oxide-dependent vascular relaxation elicited by the tested compounds was examined preincubating the aortic rings with the soluble guanylyl cyclase inhibitor ODQ (1H-(1,2,4)-oxadiazol(4,3-a)quinoxalin-1-one) at 10 μM for 20 min. Responses to vasorelaxing agents were measured from the plateau of NA contraction. The IC50 (concentration giving 50% reversal of NA contraction) was interpolated from the plots of relaxant-response vs log molar concentration of tested compound.
During the experimental period, the plateau obtained with NA was stable without significant spontaneous loss of contraction in the aortic rings.
For `CC(C)(C)OC(=O)N[C@@H](Cc1ccccc1)C(=O)OCCCC[C@H](CO[N+](=O)[O-])O[N+](=O)[O-]` [Compound 123], the IC50 (usually the midpoint of a concentration-inhibition curve) worked out at 0.64 ± 0.14 µM.

For the compound `NC(COC(=O)OCCCCO[N+](=O)[O-])C(=O)O` (stereo not drawn) [Compound 407, 2-amino-3-((4-(nitrooxy)butoxy)carbonyloxy)propanoic acid hydrochloride], the half-maximal inhibitory concentration (IC50) came out at 16 ± 6.4 µM.

Still in this assay, the particulars now being: Oryctolagus cuniculus; concentration giving 50% reversal of NA (1 μM) contraction; aortic rings with functional endothelium; read-out: IC50 (μM) ± sem.
On to `CC(C)(C)OC(=O)N1CCCC1C(=O)OCc1ccc(CO[N+](=O)[O-])cc1` (stereo not drawn) [Compound 7, 1-tert-Butyl 2-(4-(nitrooxymethyl)benzyl)pyrrolidine-1,2-dicarboxylate], for which the IC50 was found to be 2.4 ± 0.5 µM.

`CC(C)(C)OC(=O)NCC(=O)NCCCCO[N+](=O)[O-]` [Compound 12, tert-butyl 2-(4-(nitrooxy)butylamino)-2-oxoethylcarbamate]: the IC50 is 10.2 ± 4.2 µM.

Turning to `CC(C)(C)OC(=O)NC(CCc1ccccc1)C(=O)OCc1ccc(CO[N+](=O)[O-])cc1` (stereo not drawn) [Compound 13, 4-[(Nitrooxy)methyl]benzyl 2-(tert-butoxycarbonylamino)-4-phenylbutanoate], the IC50 amounted to 10.2 ± 0.5 µM.

Take `CC(C)(C)OC(=O)N[C@@H](Cc1ccccc1)C(=O)OCCCCO[N+](=O)[O-]` [Compound 15, (S)-4-(nitrooxy)butyl 2-(tert-butoxycarbonylamino)-3-phenylpropanoate]: the 50% inhibitory concentration (IC50) was 12.6 ± 6.4 µM.

`CC(C)(C)OC(=O)NC(CCc1ccccc1)C(=O)Oc1cccc(CO[N+](=O)[O-])c1` (stereo not drawn) [Compound 86, 3-[(Nitrooxy)methyl]phenyl 2-(tert-butoxycarbonylamino)-4-phenylbutanoate]: the 50% inhibitory concentration (IC50) turned out to be 5.2 ± 0.9 µM.

In the case of `CC(C)(C)OC(=O)NCC(=O)OCc1ccc(CO[N+](=O)[O-])cc1` [Compound 87, 4-[(nitrooxy)methyl]benzyl 2-(tert-butoxycarbonylamino)acetate], the IC50 came out at 2.1 ± 0.4 µM.

Take `CC(C)(C)OC(=O)NCCOC(=O)CCCO[N+](=O)[O-]` [Compound 508, 2-(tert-butoxycarbonylamino)ethyl 4-(nitrooxy)butanoate]: the IC50 turned out to be 4.4 ± 0.7 µM.

With `CC(C)(C)OC(=O)N[C@H](COC(=O)CCCO[N+](=O)[O-])Cc1ccccc1` [Compound 511, (S)-2-(tert-butoxycarbonylamino)-3-phenylpropyl 4-(nitrooxy)butanoate], the half-inhibitory concentration (IC50) worked out at 9.5 ± 3.6 µM.

`CC(C)(C)OC(=O)N1CCCC1C(=O)OCCCCO[N+](=O)[O-]` (stereo not drawn) [Example 14, 1-tert-butyl 2-(4-(nitrooxy)butyl)pyrrolidine-1,2-dicarboxylate]: the IC50 was determined as 1.9 ± 0.4 µM.

Regarding `CC(C)(C)OC(=O)N1CCCC1C(=O)OCCCO[N+](=O)[O-]` (stereo not drawn) [Example 15, 1-tert-butyl 2-(3-(nitrooxy)propyl)pyrrolidine-1,2-dicarboxylate], the IC50 came out at 1.2 ± 0.33 µM.

Take `CC(C)(C)OC(=O)NC(CCc1ccccc1)C(=O)OCCOCCO[N+](=O)[O-]` (stereo not drawn) [Example 21, 2-(2-(Nitrooxy)ethoxy)ethyl 2-(tert-butoxycarbonylamino)-4-phenylbutanoate]: the IC50 was found to be 8 ± 1.8 µM.

Staying with this assay, now noted: concentration giving 50% reversal of NA (1 μM) contraction; aortic rings with functional endothelium; read-out: IC50 (μM) ± sem.
Consider `CC(C)(C)OC(=O)N1CCCC1C(=O)Oc1cccc(CO[N+](=O)[O-])c1` (stereo not drawn) [Compound 8], for which the IC50 was found to be 2.6 ± 0.6 µM.

Regarding `CC(C)(C)OC(=O)N1CCCC1C(=O)OCCOCCO[N+](=O)[O-]` (stereo not drawn) [Compound 9], the concentration for half-maximal inhibition (IC50) came out at 4.5 ± 1.4 µM.
